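A five-concentration, 48-hour dose response in 96-well plates underlies each endpoint, interpolated linearly between surrounding concentrations. Definition used: TGI = concentration required for complete inhibition of growth.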
Key:
Assay in all cases: NCI anticancer screen, dose series, 48 h
UACC-62 melanoma = test system: UACC-62 melanoma
SF-539 CNS = test system: SF-539 CNS
SK-MEL-5 melanoma = test system: SK-MEL-5 melanoma
HCT-116 colon = test system: HCT-116 colon
CAKI-1 renal = test system: CAKI-1 renal
MCF7 breast = test system: MCF7 breast
OVCAR-5 ovarian = test system: OVCAR-5 ovarian
HCT-15 colon = test system: HCT-15 colon
NCI-H226 lung = test system: NCI-H226 lung
HS 578T breast = test system: HS 578T breast
PC-3 prostate = test system: PC-3 prostate
LOX IMVI melanoma = test system: LOX IMVI melanoma
TK-10 renal = test system: TK-10 renal
UACC-257 melanoma = test system: UACC-257 melanoma
CCRF-CEM leukemia = test system: CCRF-CEM leukemia
A549 NSCLC = test system: A549 NSCLC
COLO 205 colon = test system: COLO 205 colon
T-47D breast = test system: T-47D breast
HT29 colon = test system: HT29 colon
SK-MEL-2 melanoma = test system: SK-MEL-2 melanoma
RPMI-8226 leukemia = test system: RPMI-8226 leukemia
OVCAR-4 ovarian = test system: OVCAR-4 ovarian
SK-MEL-28 melanoma = test system: SK-MEL-28 melanoma
DU-145 prostate = test system: DU-145 prostate
M14 melanoma = test system: M14 melanoma
HOP-92 NSCLC = test system: HOP-92 NSCLC
SW-620 colon = test system: SW-620 colon
HCC-2998 colon = test system: HCC-2998 colon
MDA-N = test system: MDA-N
SNB-19 CNS = test system: SNB-19 CNS
U251 CNS = test system: U251 CNS
SR leukemia = test system: SR leukemia
SF-268 CNS = test system: SF-268 CNS
HL-60(TB) leukemia = test system: HL-60(TB) leukemia
786-0 renal = test system: 786-0 renal
K-562 leukemia = test system: K-562 leukemia
SN12C renal = test system: SN12C renal
OVCAR-3 ovarian = test system: OVCAR-3 ovarian
MDA-MB-435 = test system: MDA-MB-435
SF-295 CNS = test system: SF-295 CNS
NCI/ADR-RES ovarian = test system: NCI/ADR-RES ovarian
EKVX NSCLC = test system: EKVX NSCLC
IGROV1 ovarian = test system: IGROV1 ovarian
KM12 colon = test system: KM12 colon
MOLT-4 leukemia = test system: MOLT-4 leukemia
MDA-MB-231 breast = test system: MDA-MB-231 breast
NCI-H23 lung = test system: NCI-H23 lung
RXF 393 renal = test system: RXF 393 renal
NCI-H522 lung = test system: NCI-H522 lung
NCI-H460 lung = test system: NCI-H460 lung
OVCAR-8 ovarian = test system: OVCAR-8 ovarian
MALME-3M melanoma = test system: MALME-3M melanoma
HOP-62 NSCLC = test system: HOP-62 NSCLC
ACHN renal = test system: ACHN renal
A498 renal = test system: A498 renal
UO-31 renal = test system: UO-31 renal

SMILES: CN1C(=O)N(c2ccccc2)C2(CCN(CC3COc4ccccc4O3)CC2)C1=O (stereo unspecified)
- TGI (UACC-62 melanoma): > 100 µM
- TGI (SF-539 CNS): > 100 µM
- TGI (SK-MEL-5 melanoma): > 100 µM
- TGI (HCT-116 colon): > 100 µM
- TGI (CAKI-1 renal): > 100 µM
- TGI (MCF7 breast): > 100 µM
- TGI (OVCAR-5 ovarian): > 100 µM
- TGI (HCT-15 colon): > 100 µM
- TGI (NCI-H226 lung): > 100 µM
- TGI (HS 578T breast): > 100 µM
- TGI (PC-3 prostate): > 100 µM
- TGI (LOX IMVI melanoma): > 100 µM
- TGI (TK-10 renal): > 100 µM
- TGI (UACC-257 melanoma): > 100 µM
- TGI (CCRF-CEM leukemia): > 100 µM
- TGI (A549 NSCLC): > 100 µM
- TGI (COLO 205 colon): > 100 µM
- TGI (T-47D breast): > 100 µM
- TGI (HT29 colon): > 100 µM
- TGI (SK-MEL-2 melanoma): > 100 µM
- TGI (RPMI-8226 leukemia): > 100 µM
- TGI (OVCAR-4 ovarian): > 100 µM
- TGI (SK-MEL-28 melanoma): > 100 µM
- TGI (DU-145 prostate): > 100 µM
- TGI (M14 melanoma): > 100 µM
- TGI (HOP-92 NSCLC): > 100 µM
- TGI (SW-620 colon): 36.4 µM
- TGI (HCC-2998 colon): > 100 µM
- TGI (MDA-N): > 100 µM
- TGI (SNB-19 CNS): 56.6 µM
- TGI (U251 CNS): > 100 µM
- TGI (SR leukemia): > 100 µM
- TGI (SF-268 CNS): > 100 µM
- TGI (HL-60(TB) leukemia): > 100 µM
- TGI (786-0 renal): > 100 µM
- TGI (K-562 leukemia): > 100 µM
- TGI (SN12C renal): > 100 µM
- TGI (OVCAR-3 ovarian): 89.2 µM
- TGI (MDA-MB-435): > 100 µM
- TGI (SF-295 CNS): > 100 µM
- TGI (NCI/ADR-RES ovarian): > 100 µM
- TGI (EKVX NSCLC): > 100 µM
- TGI (IGROV1 ovarian): > 100 µM
- TGI (KM12 colon): > 100 µM
- TGI (MOLT-4 leukemia): > 100 µM
- TGI (MDA-MB-231 breast): > 100 µM
- TGI (NCI-H23 lung): > 100 µM
- TGI (RXF 393 renal): > 100 µM
- TGI (NCI-H522 lung): > 100 µM
- TGI (NCI-H460 lung): > 100 µM
- TGI (OVCAR-8 ovarian): > 100 µM
- TGI (MALME-3M melanoma): > 100 µM
- TGI (HOP-62 NSCLC): > 100 µM
- TGI (ACHN renal): > 100 µM
- TGI (A498 renal): > 100 µM
- TGI (UO-31 renal): > 100 µM
